# Target: human cannabinoid CB2 receptors (Homo sapiens, UniProt P34972)
# Assay: [35S]GTPγS binding assay, hCB2-transfected CHO cell membranes
# Details: stimulation of [35S]GTPγS binding
# Description: CHO cells were stably transfected with cDNA encoding human cannabinoid CB2 receptors and were maintained at 37° C. and 5% CO2 in Dulbecco's Modified Eagle's Medium nutrient mixture.
# The assays were carried out with GTPγS binding buffer (50 mM Tris-HCl; 50 mM Tris-Base; 5 mM MgCl2; 1 mM EDTA; 100 mM NaCl; 1 mM DTT; 0.1% BSA) in the presence of [^35S]GTPγS and GDP, in a final volume of 500 μl. Binding was initiated by the addition of [^35S]GTPγS to the tubes. The drugs were incubated in the assay for 60 min at 30° C. The reaction was terminated by a rapid vacuum filtration method using Tris buffer (50 mM Tris-HCl; 50 mM Tris-Base; 0.1% BSA), as described previously, and the radioactivity was quantified by liquid scintillation spectrometry.
# The agonism of the CB1 or CB2 receptors by CP55940 results in a response in the cell. This response is the binding of [^35S]GTPγS to the cell membrane.
# Changes in the response in the presence of the test compound can be measured in order to determine whether the compound is acting as an agonist, a neutral antagonist or an inverse agonist.
# human cannabinoid CB2 receptors, sequence (P34972 whole entry): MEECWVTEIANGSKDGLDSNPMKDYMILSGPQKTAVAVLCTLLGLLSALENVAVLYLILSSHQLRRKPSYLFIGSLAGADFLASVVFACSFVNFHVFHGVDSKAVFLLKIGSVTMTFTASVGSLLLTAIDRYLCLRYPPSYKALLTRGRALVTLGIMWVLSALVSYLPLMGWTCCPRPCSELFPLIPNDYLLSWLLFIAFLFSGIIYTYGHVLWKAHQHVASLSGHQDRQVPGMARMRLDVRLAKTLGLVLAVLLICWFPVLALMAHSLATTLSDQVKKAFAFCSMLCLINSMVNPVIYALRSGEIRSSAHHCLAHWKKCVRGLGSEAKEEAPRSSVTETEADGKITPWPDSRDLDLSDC
substance,measurement,value
SR144528,shift in the log-concentration response curve of CP55940,downward and rightward shift

# From patent publication US20090306221A1, “Use for Cannabinoid” (GW PHARMA LIMITED, priority 2006, published 2009)
